Data: US20240325544A1, “CATIONIC LIPID FOR COVALENT MODIFICATION OF PEPTIDES” (PharmalN Corporation, priority 2023, published 2024)
Like-named read-outs stand apart in the source and are kept apart here. Marks after values point to notes of the source that are not given here. Bridge positions count the residues as written; N and C are the ends. Square brackets hold non-standard residues; d marks the D form. Peptide text beside a SMILES is read from it. * marks the point of attachment. C18 diacid = O=C(O)CCCCCCCCCCCCCCCCC(=O)*; Palmitoyl = CCCCCCCCCCCCCCCC(=O)*; Dap = NC[C@H](N)C(=O)O; Hexanoyl = CCCCCC(=O)*; AEEA = NCCOCCOCC(=O)O

Experiments:
[1] = system: cGMP; test: Plasma cGMP after SC bolus of natriuretic peptides in CD-1 mice (pharmacodynamics, Table 3); format: in vivo; conditions: SC bolus 1.0 mg/kg (≤0.45 μmol/kg), baseline 10 +/−8 pmol/ml, n = 3-5
Method: (§1) The test articles were formulated or dissolved in sterile water for injection on the same day of administration. […] Blood samples were collected via retro-orbital bleed at 2- and 6-hours post-injection, with two bleedings per animal at two different timepoints. The samples were collected in K2EDTA tubes, processed by centrifugation (2000×g; 15 m 4 eC within 30 minutes after collection), and the resulting plasma samples were stored at −80° C. Biochemical analysis: The plasma concentration of the respective natriuretic peptide was analyzed using commercially available ELISA kits from Phoenix Pharmaceuticals (Burlingame, CA): ANP ELISA (cat #EKE-005-06), BNP ELISA (cat #EKE-011-03), and CNP ELISA (cat #EKE-012-03). […] Plasma cGMP was analyzed using a commercially available kit from Abcam (ab133052, Waltham, MA).

[2] = Plasma concentration of respective natriuretic peptide by ELISA after SC bolus in CD-1 mice (pharmacokinetics, Table 3); conditions: male, CD-1, mouse, in vivo
Method: as §1

[3] = system: Sprague Dawley rats; test: Dose-range finding of cationic alkyl modified CNP, subcutaneous bolus in rats (Table 2)
[4] = system: Sprague Dawley rats; test: Clinically observable adverse effects of cationic alkyl moieties after subcutaneous bolus in rats (Table 1); format: in vivo, rat; conditions: tested at 3.0, 5.0 or 10 μmol/kg
Method: Drug administration and observation: Each rat received a subcutaneous injection of a cationic alkyl modifier (SEQ ID NO: 1-22; listed in Table 1 below) in a buffer of sterile water adjusted to a pH between 4.5-5, with an initial bolus dose of 5.0 μmol/kg and an injection volume of 1.0 mL/kg. The bolus dose level was adjusted based on observations, and animals were monitored closely for lethargy, ataxia, swelling, or discoloration during the first 4 hours post-injection and hourly thereafter. As used herein, “ataxia” means a clinical sign observed as poor muscle control that causes clumsy voluntary movements. It may cause difficulty with mobility, coordination, and eye movements. As used herein, “lethargy” means a clinical sign observed as inability or unwillingness to resume normal activity characterized by exploring and alertness. Lethargic rats are easily observed by displaying little to no activity and/or unwillingness to explore around, half closed eyes, and hunched posture. As used herein, “swelling” means a clinical sign observed as the enlargement or engorgement of body parts with blood or fluid and is associated with visible redness (discoloration). If no swelling occurred, dose level was increased to 10 μmol/kg; if swelling was present, bolus dose level was decreased to 3.0 μmol/kg. A wash-out period of 1 week was allowed between bolus doses, and animals were humanely euthanized through CO2 asphyxiation after final observation.

Row | SMILES | Lethargy* in n = 3 ([3]; up to 10 mg/kg) | Swelling and/or Discoloration in n = 3 ([3]; up to 10 mg/kg) | Lethargy* in n = 3 ([3]; value in parentheses) | Swelling and/or Discoloration in n = 3 ([3]; value in parentheses) | Plasma concentration of cGMP, 2 hr [1] | Plasma concentration of cGMP, 6 hr [1] | Ataxia** in n = 3 ([3]; up to 10 mg/kg) | Ataxia** in n = 3 ([3]; value in parentheses) | other results
1 | CC[C@H](C)[C@@H]1NC(=O)[C@H](CCCNC(=N)N)NC(=O)[C@H](CC(=O)O)NC(=O)[C@H](CC(C)C)NC(=O)[C@H](CCCCN)NC(=O)[C@H](CC(C)C)NC(=O)CNC(=O)[C@H](Cc2ccccc2)NC(=O)[C@@H](NC(=O)CNC(=O)[C@H](CCCCN)NC(=O)[C@H](CO)NC(=O)[C@H](CC(C)C)NC(=O)CN)CSSC[C@@H](C(=O)O)NC(=O)CNC(=O)[C@H](CC(C)C)NC(=O)CNC(=O)[C@H](CO)NC(=O)[C@H](CCSC)NC(=O)[C@H](CO)NC(=O)CNC1=O [SEQ ID NO: 32, reference compound] | – | – | – | – | 8.7 pmol/mL | 9.5 pmol/mL | – | – | level at 2 h ([2]; mice, SC bolus 1.0 mg/kg (≤0.45 μmol/kg), 2 hr, ELISA, n = 3-5, read-out: Plasma concentration of respective Natriuretic Peptide, ANP, BNP, or CNP, 2 hr): 2.17 ng/mL; level at 6 h ([2]; mice, SC bolus 1.0 mg/kg (≤0.45 μmol/kg), 6 hr, ELISA, n = 3-5, read-out: Plasma concentration of respective Natriuretic Peptide, ANP, BNP, or CNP, 6 hr): 2.91 ng/mL
2 | CCCCCCCCCCCCCCCC(=O)NCCOCCOCC(=O)NCCOCCOCC(=O)NCCOCCOCC(=O)N[C@@H](CN)C(=O)NCC(=O)N[C@@H](CC(C)C)C(=O)N[C@@H](CO)C(=O)N[C@@H](CCCCN)C(=O)NCC(=O)N[C@H]1CSSC[C@@H](C(=O)O)NC(=O)CNC(=O)[C@H](CC(C)C)NC(=O)CNC(=O)[C@H](CO)NC(=O)[C@H](CCC(N)=O)NC(=O)[C@H](CO)NC(=O)CNC(=O)[C@H]([C@@H](C)CC)NC(=O)[C@H](CCCNC(=N)N)NC(=O)[C@H](CC(=O)O)NC(=O)[C@H](CC(C)C)NC(=O)[C@H](CCCCN)NC(=O)[C@H](CC(C)C)NC(=O)CNC(=O)[C@H](Cc2ccccc2)NC1=O [SEQ ID NO: 42] ({Palmitoyl-AEEA-AEEA-AEEA}-[Dap]GLSKGCFGLKLDRIGSQSGLGC-OH; disulfide 7-23; C-terminus assumed) | – | – | – | – | 110.21*** pmol/mL | 46.90** pmol/mL | – | – | level at 2 h ([2]; sc, 1 mg/kg): 26.1 ng/mL; level at 6 h ([2]; sc, 1 mg/kg): 25 ng/mL
3 | CC[C@H](C)[C@@H]1NC(=O)[C@H](CCCNC(=N)N)NC(=O)[C@H](CC(=O)O)NC(=O)[C@H](CC(C)C)NC(=O)[C@H](CCCCN)NC(=O)[C@H](CC(C)C)NC(=O)CNC(=O)[C@H](Cc2ccccc2)NC(=O)[C@@H](NC(=O)CNC(=O)[C@H](CCCCN)NC(=O)[C@H](CO)NC(=O)[C@H](CC(C)C)NC(=O)CNC(=O)[C@H](CN)NC(=O)[C@H](CN)NC(=O)COCCOCCNC(=O)COCCOCCNC(=O)COCCOCCNC(=O)CCCCCCCCCCCCCCCCC(=O)O)CSSC[C@@H](C(=O)O)NC(=O)CNC(=O)[C@H](CC(C)C)NC(=O)CNC(=O)[C@H](CO)NC(=O)[C@H](CCC(N)=O)NC(=O)[C@H](CO)NC(=O)CNC1=O [SEQ ID NO: 39] ({C18 diacid-AEEA-AEEA-AEEA}-[Dap][Dap]GLSKGCFGLKLDRIGSQSGLGC-OH; disulfide 8-24; C-terminus assumed) | – | – | – | – | 13.29 pmol/mL | 43.60 pmol/mL | – | – | level at 2 h ([2]; sc, 1 mg/kg): 50.7 ng/mL; level at 6 h ([2]; sc, 1 mg/kg): 23.7 ng/mL
4 | CC[C@H](C)[C@@H]1NC(=O)[C@H](CCCNC(=N)N)NC(=O)[C@H](CC(=O)O)NC(=O)[C@H](CCSC)NC(=O)[C@H](CCCNC(=N)N)NC(=O)CNC(=O)CNC(=O)[C@H](Cc2ccccc2)NC(=O)[C@@H](NC(=O)[C@H](CO)NC(=O)[C@H](CO)NC(=O)[C@H](CCCNC(=N)N)NC(=O)[C@H](CCCNC(=N)N)NC(=O)[C@H](CC(C)C)NC(=O)[C@@H](N)CO)CSSC[C@@H](C(=O)N[C@@H](CC(N)=O)C(=O)N[C@@H](CO)C(=O)N[C@@H](Cc2ccccc2)C(=O)N[C@@H](CCCNC(=N)N)C(=O)N[C@@H](Cc2ccc(O)cc2)C(=O)O)NC(=O)CNC(=O)[C@H](CC(C)C)NC(=O)CNC(=O)[C@H](CO)NC(=O)[C@H](CCC(N)=O)NC(=O)[C@H](C)NC(=O)CNC1=O [SEQ ID NO: 44, reference compound] | – | – | – | – | 26.23 pmol/mL | 14.08 pmol/mL | – | – | –
5 | CCCCCCCCCCCCCCCC(=O)NCCOCCOCC(=O)NCCOCCOCC(=O)NCCOCCOCC(=O)N[C@@H](CCCCN)C(=O)N[C@@H](CCCCN)C(=O)O [SEQ ID NO: 7, CH3(CH2)14(C═O)-Aeea-Aeea-Aeea-KK] | – | – | – | – | – | – | – | – | Ataxia** in n = 3 ([4]; ataxia is bolus dose limiting toxicity): >5 µmol/kg; Swelling and/or Discoloration in n = 3 ([4]; dose at which sign was seen): ≥3 µmol/kg; Lethargy* in n = 3 ([4]; lethargy is considered maximum tolerated bolus dose): ≥5 µmol/kg

More lines, main results first:

Row | Lethargy* in n = 3 ([3]; up to 10 mg/kg) | Swelling and/or Discoloration in n = 3 ([3]; up to 10 mg/kg) | Lethargy* in n = 3 ([3]; value in parentheses) | Swelling and/or Discoloration in n = 3 ([3]; value in parentheses) | SMILES | Plasma concentration of cGMP, 2 hr [1] | Plasma concentration of cGMP, 6 hr [1] | Ataxia** in n = 3 ([3]; up to 10 mg/kg) | Ataxia** in n = 3 ([3]; value in parentheses) | other results
6 | ≥5 mg/kg | ≥5 mg/kg | (1.6) μmol/kg | (1.6) μmol/kg | CCCCCC(=O)N[C@@H](CCCCN)C(=O)N[C@@H](CCCCN)C(=O)NCC(=O)NCC(=O)NCC(=O)N[C@@H](CCCNC(=N)N)C(=O)N[C@@H](CCCNC(=N)N)C(=O)NCC(=O)N[C@@H](CC(C)C)C(=O)N[C@@H](CO)C(=O)N[C@@H](CCCCN)C(=O)NCC(=O)N[C@H]1CSSC[C@@H](C(=O)O)NC(=O)CNC(=O)[C@H](CC(C)C)NC(=O)CNC(=O)[C@H](CO)NC(=O)[C@H](CCC(N)=O)NC(=O)[C@H](CO)NC(=O)CNC(=O)[C@H]([C@@H](C)CC)NC(=O)[C@H](CCCNC(=N)N)NC(=O)[C@H](CC(=O)O)NC(=O)[C@H](CC(C)C)NC(=O)[C@H](CCCCN)NC(=O)[C@H](CC(C)C)NC(=O)CNC(=O)[C@H](Cc2ccccc2)NC1=O [SEQ ID NO: 27] (Hexanoyl-KKGGGRRGLSKGCFGLKLDRIGSQSGLGC-OH; disulfide 13-29; C-terminus assumed) | – | – | ≥5 mg/kg | (1.6) μmol/kg | –
7 | ≥5 mg/kg | ≥5 mg/kg | (1.6) μmol/kg | (1.6) μmol/kg | CCCCCCCCCCCCCCCC(=O)N[C@H](CCCCN)C(=O)N[C@H](CCCCN)C(=O)N[C@H](CCCCN)C(=O)N[C@H](CCCCN)C(=O)NCC(=O)NCC(=O)NCC(=O)NCC(=O)N[C@@H](CC(C)C)C(=O)N[C@@H](CO)C(=O)N[C@@H](CCCCN)C(=O)NCC(=O)N[C@H]1CSSC[C@@H](C(=O)O)NC(=O)CNC(=O)[C@H](CC(C)C)NC(=O)CNC(=O)[C@H](CO)NC(=O)[C@H](CCC(N)=O)NC(=O)[C@H](CO)NC(=O)CNC(=O)[C@H]([C@@H](C)CC)NC(=O)[C@H](CCCNC(=N)N)NC(=O)[C@H](CC(=O)O)NC(=O)[C@H](CC(C)C)NC(=O)[C@H](CCCCN)NC(=O)[C@H](CC(C)C)NC(=O)CNC(=O)[C@H](Cc2ccccc2)NC1=O [SEQ ID NO: 26] (Palmitoyl-[dK][dK][dK][dK]GGGGLSKGCFGLKLDRIGSQSGLGC-OH; disulfide 13-29; C-terminus assumed) | – | – | ≥5 mg/kg | (1.6) μmol/kg | –
8 | ≥5 mg/kg | ≥5 mg/kg | (1.6) μmol/kg | (1.6) μmol/kg | CCCCCCCCCCCCCCCC(=O)NCC(=O)NCC(=O)NCC(=O)N[C@@H](CCCCN)C(=O)N[C@@H](CCCCN)C(=O)N[C@@H](CCCCN)C(=O)N[C@@H](CCCCN)C(=O)NCC(=O)N[C@@H](CC(C)C)C(=O)N[C@@H](CO)C(=O)N[C@@H](CCCCN)C(=O)NCC(=O)N[C@H]1CSSC[C@@H](C(=O)O)NC(=O)CNC(=O)[C@H](CC(C)C)NC(=O)CNC(=O)[C@H](CO)NC(=O)[C@H](CCC(N)=O)NC(=O)[C@H](CO)NC(=O)CNC(=O)[C@H]([C@@H](C)CC)NC(=O)[C@H](CCCNC(=N)N)NC(=O)[C@H](CC(=O)O)NC(=O)[C@H](CC(C)C)NC(=O)[C@H](CCCCN)NC(=O)[C@H](CC(C)C)NC(=O)CNC(=O)[C@H](Cc2ccccc2)NC1=O [SEQ ID NO: 25] (Palmitoyl-GGGKKKKGLSKGCFGLKLDRIGSQSGLGC-OH; disulfide 13-29; C-terminus assumed) | – | – | ≥5 mg/kg | (1.6) μmol/kg | –
